Test results taken from paper PMC12655235 (Pharmaceuticals, 2025).

Assays:
[1] = tested on: U87 cells; experiment: MTT assay for cell viability; assay type: cell-based; settings: Homo sapiens, U-87 MG, 24 h incubation
Experimental: U87 cells were maintained in DMEM supplemented with 10% fetal bovine serum and antibiotics (100 U/mL penicillin, 100 µg/mL streptomycin) at 37 °C in a humidified 5% CO2 atmosphere under sterile conditions. To ensure accurate experimental comparisons, all experiments included two control groups: a negative control of cells incubated in drug-free medium, and a solvent control with cells exposed to drug-free medium containing 0.5% DMSO, to evaluate any potential solvent toxicity. Cell viability was determined using the MTT assay after a 24 h incubation of U87 cells with various drug formulations. These included free atorvastatin, free curcumin, a solution combining atorvastatin and curcumin, At-Cu LNCs and FA-At-Cu LNCs. Stock solutions (2 mg/mL) for individual free drugs and their combination were prepared in phosphate-buffered saline (PBS) containing 1% sterile DMSO to ensure complete solubilization, from which serial dilutions (25–800 µg/mL) were then made. At-Cu LNCs and FA-At-Cu LNCs were sonicated for 5 min prior to preparing their serial dilutions (0.025–250 µg/mL). […] The resultant formazan crystals were dissolved in acidified isopropanol, and absorbance was measured at 560 nm using PHERAstar microplate reader (BMG Labtech, Ortenberg, Germany). Cell viability was expressed as a percentage of untreated control cells, and half-maximal inhibitory concentrations (IC50) were calculated. […]

[2] = In vivo pharmacokinetics and biodistribution of 131I-radiolabeled drugs in glioma-bearing mice; design: species or system BALB/c mice; settings: [131I]-curcumin
Experimental: Labeling conditions were systematically optimized by varying pH, drug concentration, oxidant amount, and reaction time. […] Purification was achieved by RP-HPLC to remove free iodine and impurities. […] The radiochemical yield was determined by calculating the percentage of the total radioactivity attributed to the radio-iodinated compound, using the following equation [105, 106]: Radiochemical yield %=Activity of labeled compond/Total activity ×100
All animal procedures were conducted in accordance with arrive guidelines and were approved by the Research Ethics Committee at the Faculty of Pharmacy, The British university in Egypt, with approval number (EX-2508). Male BALB/c mice (6 weeks old, weighing 20–25 g) were utilized for the study. Prior to the start of experiments, animals were acclimatized for two weeks under controlled environmental conditions (25 ± 2 °C, 12 h light/dark cycle) in group-housed (3–5 mice/cage) polypropylene cages at the animal house of the Egyptian Atomic Energy Authority. […] For induction of brain tumor in mice, they were anesthetized through intraperitoneal injection of 0.1 mL of ketamine-xylazine solution containing ketamine HCl (25 mg/mL) and xylazine (2.5 mg/mL) as described in current protocols. To implant cells intracranially, a calibrated 26-gauge 701N Hamilton micro-syringe (Micromeasure B.V., The Hague, The Netherlands) was used to inject 5 µL of 2.5 × 10^6 cells of CT-2A glioma cell suspension intracranially through the post glenoid foramen as previously reported. The right auricle was slowly pushed forward during the procedure, exposing the site of insertion. The syringe was held at an appropriate angle, and the cell suspension was slowly injected over 30 s. On completion, the needle was removed gently while applying light finger pressure to prevent bleeding. Additional pressure was applied for an additional 30 s after the removal of the needle to achieve hemostasis.
One hundred and eighty BALB/c mice were randomly assigned into six experimental groups, each further divided into six subgroups (n = 5 per subgroup), corresponding to specific time points post-injection: 0.5, 1, 2, 4, 8, and 24 h. […] Formulations were prepared under aseptic conditions using sterile water for injection and a laminar flow hood.
At each time point, five mice per group were anesthetized using isoflurane, and blood samples were collected by cardiac puncture into pre-heparinized polypropylene tubes. Mice were then euthanized by CO2 inhalation, and organs including the brain, liver, and kidneys and others were excised, rinsed with physiological saline, gently blotted, and weighed. Tissue and plasma samples were analyzed for radioactivity using a well-type γ-scintillation counter (SR-7,Nuclear Enterprises Ltd., San Carlos, CA, USA) and data were expressed as the percentage of the injected dose per gram of tissue (%ID/g).
The mean radioactivity values (represented as % injected dose per gram of tissue, %ID/g) acquired at various time points were examined using PKSolver, a Microsoft Excel add-in, in order to evaluate the pharmacokinetic behavior and tissue distribution of the radiolabeled formulations. […] AUC values based on time-radioactivity data were calculated using the trapezoidal rule.
Two quantitative parameters were computed using the AUC values obtained from the biodistribution study in order to assess the targeting performance and tissue selectivity of the formulations. The following equation was used to calculate tumor targeting efficiency (%): Tumor targeting efficiency %= AUC0−24 glioma/AUC0−24 blood x100

[3] = Solubility study of folic acid in acetone; assay type: physicochemical; settings: sedimentation at 40 mg
[4] = cited from earlier work
[5] = i.v. 2 mg/kg, glioma-bearing mice

Row | SMILES | IC50 [1] [µg/mL] | AUC (0–24 h) Intestine, curcumin ([2]; i.v.) [%ID*h/g tissue] | AUC (0–24 h) Spleen, curcumin ([2]; i.v.) [%ID*h/g tissue] | AUC (0–24 h) kidneys, curcumin ([2]; i.v.) [%ID*h/g tissue] | AUC (0–24 h) liver, curcumin ([2]; i.v.) [%ID*h/g tissue] | AUC (0–24 h) Blood, curcumin [2, 5] [%ID*h/g tissue] | AUC (0–24 h) Brain, curcumin [2, 5] [%ID*h/g tissue] | AUC (0–24 h) Glioma, curcumin [2, 5] [%ID*h/g tissue] | Complete solubility in acetone [3] | Renal excretion of atorvastatin and its active metabolites [4]
1 | COc1cc(/C=C/C(=O)CC(=O)/C=C/c2ccc(O)c(OC)c2)ccc1O [curcumin, Curcumin] | 724 ± 78.3 | 526.50 ± 111.63 | 7.07 ± 1.70 | 57.87 ± 12.47 | 711.50 ± 114.83 | 72.27 ± 15.44 | 1.47 ± 0.44 | 3.72 ± 1.34 | – | –
2 | Nc1nc2ncc(CNc3ccc(C(=O)N[C@@H](CCC(=O)O)C(=O)O)cc3)nc2c(=O)[nH]1 [FA, Folic acid] | – | – | – | – | – | – | – | – | up to 30 mg | –
3 | CC(C)c1c(C(=O)Nc2ccccc2)c(-c2ccccc2)c(-c2ccc(F)cc2)n1CC[C@@H](O)C[C@@H](O)CC(=O)O [atorvastatin, Atorvastatin calcium] | 680 ± 17.2 | – | – | – | – | – | – | – | – | less than 2 % of the dose
